Laboratory results: patent US20240398740A1, “THERAPEUTIC COMPOSITION, METHODS, AND USES FOR THE CONTROL OF SEIZURES” (priority 2022, published 2024)
“Also recorded” adds a separate entry of the source. Where two headings read alike, the source gives them in different places.

Experiments:
ADs and hand-twitching = experiment: stimulation-evoked afterdischarges (ADs) and hand-twitching in primate model; settings: in vivo
Protocol: Stimulation-evoked […] evoked by a 4 sec train of 60 Hz biphasic pulses at 4-20 mA using a bipolar stimulating electrode (5 mm interelectrode distance) powered by a constant current source (Ojemann Cortical Stimulator, Integra Life Sciences Corporation, NJ, U.S.A.) placed on the sensory cortex, or by passing current between two of the three surface electrodes. The AD threshold was determined by stimulating at the lowest level that reliably triggered AD activity three times in a row and thresholds remained constant throughout recordings. AD activity was reliably elicited on the sensory cortex during the same experiments in which a bicuculline focus was created on the motor cortex. […] The brain is electrically stimulated for 4 seconds at varying current magnitudes until the “after discharge threshold” is determined: the magnitude of stimulation current that is just sufficient to elicit ADs. The stimulation artifacts are shown in the top lefthand trace, denoted by stars (*). The ADs are shown by orange bars. One can see that, in this case, 7 mA was not sufficient for eliciting ADs, but 8 mA reliably generated ADs. […] In this way, changes in the effect of a treatment on this type of electrical stimulation-evoked epileptiform activity can be quantified by measuring changes in the AD-threshold. From Haglund and Hochman, 2007.

bicuculline spiking = experiment: acute bicuculline seizure focus model in nonhuman primates (surface EEG); format: in vivo, Macaca nemestrina; settings: for block of bicuculline spiking by comparator drugs: IV administration (FIG. 13); for effect on bicuculline spiking after oral dose: 10 mg/kg
4-AP bursting = 4-AP bursting in primate neocortical seizure model; format: in vivo; settings: Keppra 2×40 mg/kg
[1] = test system: maximal electroshock (MES) seizures; settings: pharmacology review provided to the FDA; cited from earlier work
epileptiform activity = experiment: primate neocortical seizure model; format: in vivo; settings: Furosemide at 10 mg/kg IV, bumetanide at 2 mg/kg IV
Excerpt: The primate neocortical seizure model was used here for testing the effects of NKCC antagonists on epileptiform activity. This model and the techniques used to analyze the data was originally developed by Haglund and Hochman for the purpose of studying intrinsic optical signals in the human and primate brain, and how these signals could be used to map spread of seizure activity in the neocortex (Haglund et al. 1993, Haglund and Hochman, 2007). […] The afterdischarge protocol developed for human intraoperative studies as shown in the second figure below was also used in primate studies. As well, the physical properties of the optical signals from the brain generated by epileptiform activity (not shown here) (Haglund and Hochman, 2005, Haglund and Hochman 2007).

[2] = test system: maximal pentylenetetrazol (PTZ) seizures; settings: pharmacology review provided to the FDA; cited from earlier work
[3] = test system: spontaneous interictal spiking; settings: 20 mg IV furosemide; cited from earlier work
afterdischarge activity = settings: cortical stimulation, human patient; cited from earlier work
[4] = diuresis (urine production) in anesthetized, catheterized macaque monkeys
[5] = in vivo
[6] = repeated dosing in healthy adult subjects: BUN, creatinine, serum chloride, urine specific gravity as signs of diuresis; format: in vivo, humans; settings: healthy adults, eight capsules of 16 mg every 24 hours, day 1 to day 8
Protocol: Pharmacokinetic (PK) blood samples were collected and analyzed pre-dosing to establish baseline levels. Analysis was also done on day1, day 3, day 4, day 5, day 6, day 7, and day 8 following dosing. The samples were analysed for BUN (blood urea nitrogen), creatinine, serum chloride, and urine specific gravity. Diuresis is indicated by an out of proportion increase in serum BUN compared to creatinine (BUN increase out of proportion to creatinine), a decrease in urine specific gravity, and an increase in serum chloride. […] The grey horizontal lines in FIGS. 28-29 are indicative of an upper and a lower range for accepted normal values. The control-subject (placebo) are indicated with white-and-black dashed lines and grey dots.

[7] = first-pass metabolism and intramuscular absorption of Bumetanide Dibenzylamide; format: in vivo
Excerpt: Refinement opportunities may include extended or controlled release oral capsule or tablet or use of a transdermal formulation. Intramuscular data shown below supports the development of a potential transdermal therapy.

fear-potentiated startle = experiment: rat fear-potentiated startle (FPS) model of conditioned anxiety; format: in vivo, Long-Evans rats; settings: 35 mg/kg IV
[8] = PO gavage, CMC-water suspension, mol-Eq to 10 mg/kg bumetanide, bicuculline-generated spikes, pretreatment vs maximum change
[9] = PO, mol-Eq to 10 mg/kg bumetanide
[10] = PO, mol-Eq to 10 mg/kg bumetanide, interspike intervals
[11] = PO, 10 mg/kg bumetanide or mol-Eq

Which results are given for `O=C1NC(c2ccccc2)(c2ccccc2)C(=O)N1COP(=O)(O)O` [Fosphenatoin]?
block of ADs and hand-twitching (ADs and hand-twitching): block ADs and hand-twitching; block of bicuculline spiking by comparator drugs (bicuculline spiking): does not; block of 4-AP bursting (4-AP bursting): block 4-AP bursting

Which “block of ADs and hand-twitching” value (ADs and hand-twitching) does the source give for `CC[C@@H](C(N)=O)N1CCCC1=O` [Keppra, Levetiracetam] here?
The value was “does not”.

What about the “anticonvulsant activity in MES test” value [1] of the same molecule?
The value was “no anticonvulsant activity”.

What about the “block of bicuculline spiking by comparator drugs” value (“block of bicuculline spiking” below) (bicuculline spiking) of the same molecule?
Its value is “block bicuculline spiking; also recorded: suppress bicuculline spiking”.

What about the “block of 4-AP bursting” value (4-AP bursting) of the same molecule?
The value was “does NOT block 4-AP bursting”.

What about the “anticonvulsant effect in primate seizure model” value (“anticonvulsant effect” below) (epileptiform activity) of the same molecule?
Its value is “clear anticonvulsant effect”.

And the “anticonvulsant activity in PTZ test” value [2]?
The value was “no anticonvulsant activity”.

For `NS(=O)(=O)c1cc(C(=O)O)c(NCc2ccco2)cc1Cl` [Furosemide, furosemide], which “effect on spontaneous interictal spiking” value [3] is on record?
The value was “Blockade of Spontaneous Interictal Spiking”.

What about the “afterdischarge activity after treatment” value (afterdischarge activity) of the same molecule?
The value was “abruptly blocked”.

What about the afterdischarge threshold (afterdischarge activity) of the same molecule?
Its afterdischarge threshold is “increased the afterdischarge threshold”.

What about the “anticonvulsant effect” value (epileptiform activity) of the same molecule?
The value was “block seizures”.

And the “diuretic potency relative to bumetanide” value ([4]; in vivo)?
The value was “about 1/10”.

Which “Average % change in spike size” value (bicuculline spiking; [8]) does the source give for `CCCCNc1cc(C(=O)N(CC)CC)cc(S(N)(=O)=O)c1Oc1ccccc1` [bumetanide diethylamide] here?
The value was 40%.

And the “Time to 50% recovery for spike sizes” value (bicuculline spiking; [9])?
The value was 59 min.

What about the “Time to 50% recovery of ISI” value (bicuculline spiking; [9]) of the same molecule?
Its value is 59 min.

What about the “Average % change in ISI” value (bicuculline spiking; in vivo) of the same molecule?
The value was 65%.

What about the “percentage change in urine production over time” value (shortened to “percentage change”) ([4]; FIG. 21, compared to bumetanide) of the same molecule?
The value was “lower percentage change in urine production over time compared to bumetanide”.

What about the “rate of urine production over time” value ([4]; FIG. 22, compared to bumetanide) of the same molecule?
Its value is “lower rate of urine production over time compared to bumetanide”.

What about the “average rate of urine production after treatment” value (shortened to “average rate of urine production”) ([4]; FIG. 23, compared to bumetanide) of the same molecule?
Its value is “lower average rate of urine production compared to bumetanide”.

With `CCCC(C)C1(CC)C(=O)NC(=S)NC1=O` (stereo not shown) [pentothal, sodium thiopental] as the molecule, how does the “block of 4-AP bursting” value (4-AP bursting) read?
Its value is “block 4-AP bursting”.

Which “average rate of urine production” value [5] does the source give for `CCCCNc1cc(C(=O)N2CCOCC2)cc(S(N)(=O)=O)c1Oc1ccccc1` [NPT 2024, Bumetanide Morpholino Amide] here?
Its value is “lower average rate of urine production compared to bumetanide”.

And the “percentage change” value [5]?
The value was “lower percentage change in urine production over time compared to bumetanide”.

And the “rate of urine production over time” value [5]?
The value was “lower rate of urine production over time compared to bumetanide”.

What about the “Average % change in spike size” value (bicuculline spiking; [8]) of the same molecule?
Its value is 44%.

What about the “Time to 50% recovery for spike sizes” value (bicuculline spiking; [9]) of the same molecule?
The value was 110 min.

And the “Time to 50% recovery of ISI” value (bicuculline spiking; [9])?
Its value is 180 min.

What about the “Average % change in ISI” value (bicuculline spiking; [10]) of the same molecule?
The value was 37.5%.

And the “interspike intervals compared with bumetanide parent” value (bicuculline spiking; n=4, FIG. 8)?
Its value is “dramatic increase in interspike intervals”.

What about the “spikes per minute compared with bumetanide parent” value (bicuculline spiking; n=4, FIG. 9) of the same molecule?
Its value is “dramatic decrease in spikes per minute”.

And the “average spike height compared with bumetanide parent” value (bicuculline spiking; n=4, FIG. 10)?
The value was “dramatic decrease in the average spike height”.

With `CCCCNc1cc(C(=O)O)cc(S(N)(=O)=O)c1Oc1ccccc1` [Bumetanide, 3-(Aminosulfonyl)-5-(butylamino)-4-phenoxybenzoic acid, reference compound] as the molecule, how does the “block of ADs and hand-twitching” value (ADs and hand-twitching) read?
Its value is “block ADs and hand-twitching”.

What about the “block of bicuculline spiking” value (bicuculline spiking) of the same molecule?
The value was “block bicuculline spiking”.

What about the “block of bicuculline spiking” value (bicuculline spiking; listed as bumetanide) of the same molecule?
The value was “suppress bicuculline spiking”.

And the “time postinjection of traces showing profound, nearly complete blockade of epileptiform activity” value (bicuculline spiking; IV, 2 mg/kg bumetanide or mol-Eq)?
The value was 81 min.

What about the “effect on bicuculline spiking after intravenous dose” value (bicuculline spiking; IV, 2 mg/kg bumetanide or mol-Eq, in PEG-200) of the same molecule?
Its value is “near-complete blockade of the bicuculline spiking”.

What about the “time postinjection of recovery to baseline pretreatment spiking” value (bicuculline spiking; IV, 2 mg/kg bumetanide or mol-Eq, NPT 2042 experiment ended before recovery) of the same molecule?
Its value is roughly 120 min.

What about the “Average % change in spike size” value (bicuculline spiking; [8]) of the same molecule?
The value was 23.7%.

And the “effect on bicuculline spiking after oral dose” value (bicuculline spiking; [11])?
Its value is “reduced spike height and frequency of bicuculline spiking; also recorded: transiently mediate a reduction in size and frequency of spiking”.

What about the “Time to 50% recovery for spike sizes” value (bicuculline spiking; [9]) of the same molecule?
The value was 35 min.

And the “Time to 50% recovery of ISI” value (bicuculline spiking; [9])?
The value was 163 min.

What about the “Average % change in ISI” value (bicuculline spiking; [10]) of the same molecule?
Its value is 68.7%.

And the “block of 4-AP bursting” value (4-AP bursting)?
The value was “block 4-AP bursting”.

And the “anticonvulsant effect” value (epileptiform activity)?
The value was “block seizures”.

What about the diuretic response [4, 11] of the same molecule?
The diuretic response was “potent diuretic effect”.

With `CCCCNc1cc(C(=O)N(Cc2ccccc2)Cc2ccccc2)cc(S(N)(=O)=O)c1Oc1ccccc1` [NPT 2042, N, N-dibenzyl 3-aminosulfonyl-5-butylamino-4-phenoxybenzamide] as the molecule, how does the “indication of diuresis (BUN, creatinine, serum chloride, urine specific gravity)” value [6] read?
The value was “no indication of diuresis”.

And the “average rate of urine production” value [5]?
Its value is “lower average rate of urine production compared to bumetanide”.

What about the “percentage change” value [5] of the same molecule?
Its value is “lower percentage change in urine production over time compared to bumetanide”.

And the “rate of urine production over time” value [5]?
Its value is “lower rate of urine production over time compared to bumetanide”.

And the “first-pass metabolism by the liver” value ([7]; in vivo)?
Its value is “susceptible to high first-pass metabolism by the liver”.

And the “absorption after intramuscular administration” value ([7]; intramuscular)?
Its value is “can be absorbed through the microvessels of the muscle into the circulation”.

What about the “Average % change in ISI” value (bicuculline spiking; in vivo) of the same molecule?
Its value is 26%.

And the “Average % change in spike size” value (bicuculline spiking; in vivo)?
Its value is 35.2%.

What about the “Time to 50% recovery for spike sizes” value (bicuculline spiking; in vivo) of the same molecule?
The value was 160 min.

And the “Time to 50% recovery of ISI” value (bicuculline spiking; in vivo)?
The value was 126 min.

What about the “time postinjection of recovery to baseline pretreatment spiking” value (bicuculline spiking; in vivo) of the same molecule?
The value was greater than 155 min.

And the “effect on bicuculline spiking after intravenous dose” value (bicuculline spiking; in vivo, iv, 2 mg/kg)?
Its value is “near-complete blockade of the bicuculline spiking”.

And the “time postinjection of traces showing profound, nearly complete blockade of epileptiform activity” value (bicuculline spiking; in vivo, iv, 2 mg/kg)?
Its value is 72 min.

And the “effect on bicuculline spiking after oral dose” value (bicuculline spiking; in vivo, po)?
The value was “reduced spike height and frequency of bicuculline spiking; also recorded: transiently mediate a reduction in size and frequency of spiking”.

And the “anxiolytic effect in the FPS model” value (fear-potentiated startle)?
The value was “anxiolytic effect in the FPS model similar in magnitude to that elicited by equivalent (mg/kg) doses of bumetanide”.
